Experimental data published in ChEMBL document CHEMBL3045608, “Docking simulations, synthesis, and anti-inflammatory activity evaluation of 2-(N-alkyl)amino-3-nitroimidazo[1,2-a]pyridines” (Med Chem Res, 2012).
Active and inactive are the calls of the source. The calls are words filed in the database; no cut-off is given here.

Experiments:
Rattus norvegicus [1] = experiment: Anti-inflammatory activity in Rattus norvegicus Wistar (rat) assessed as decrease in cotton pellet-induced granuloma weight at 20 mg/kg, po measured on day 8; format: functional, organism-based; parameters: dose 20 mg/kg
Rattus norvegicus [2] = experiment: Gastrointestinal toxicity in Rattus norvegicus Wistar (rat) assessed as induction of duodenum macroscopic damage at 20 mg/kg, po measured on day 8; format: organism-based; parameters: dose 20 mg/kg, route oral; conditions: in vivo
Rattus norvegicus [3] = experiment: Gastrointestinal toxicity in Rattus norvegicus Wistar (rat) assessed as induction of stomach macroscopic damage at 20 mg/kg, po measured on day 8; format: organism-based; parameters: dose 20 mg/kg, route oral; conditions: in vivo
[4] = biological target: Prostaglandin G/H synthase 1 (Homo sapiens) (UniProt P23219); experiment: Binding affinity to COX1 (unknown origin)
[5] = biological target: T1, Prostaglandin G/H synthase 2 (Homo sapiens) (UniProt P35354); experiment: Binding affinity to COX2 (unknown origin)
T1 sequence (whole entry): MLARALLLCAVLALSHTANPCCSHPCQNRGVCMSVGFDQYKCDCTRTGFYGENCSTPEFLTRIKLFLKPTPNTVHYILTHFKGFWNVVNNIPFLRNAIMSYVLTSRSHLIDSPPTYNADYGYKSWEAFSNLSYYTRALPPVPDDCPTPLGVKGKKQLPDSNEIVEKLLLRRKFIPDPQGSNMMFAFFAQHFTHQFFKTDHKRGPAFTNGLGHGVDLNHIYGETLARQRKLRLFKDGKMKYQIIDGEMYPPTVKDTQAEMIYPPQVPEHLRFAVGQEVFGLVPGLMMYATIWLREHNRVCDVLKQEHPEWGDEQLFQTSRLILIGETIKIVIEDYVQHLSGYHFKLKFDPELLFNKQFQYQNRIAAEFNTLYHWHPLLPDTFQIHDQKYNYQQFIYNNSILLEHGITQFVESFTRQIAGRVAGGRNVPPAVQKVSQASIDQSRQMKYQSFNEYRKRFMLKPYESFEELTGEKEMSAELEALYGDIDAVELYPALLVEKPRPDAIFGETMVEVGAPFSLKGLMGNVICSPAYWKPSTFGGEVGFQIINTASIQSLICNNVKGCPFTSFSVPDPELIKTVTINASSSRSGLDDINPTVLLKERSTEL

[6] = biological target: T2, Prostaglandin G/H synthase 1 (Ovis aries) (UniProt P05979); experiment: Inhibition of Ovis aries (sheep) COX1 at 0.1 uM by colorimetric analysis
T2 sequence (whole entry): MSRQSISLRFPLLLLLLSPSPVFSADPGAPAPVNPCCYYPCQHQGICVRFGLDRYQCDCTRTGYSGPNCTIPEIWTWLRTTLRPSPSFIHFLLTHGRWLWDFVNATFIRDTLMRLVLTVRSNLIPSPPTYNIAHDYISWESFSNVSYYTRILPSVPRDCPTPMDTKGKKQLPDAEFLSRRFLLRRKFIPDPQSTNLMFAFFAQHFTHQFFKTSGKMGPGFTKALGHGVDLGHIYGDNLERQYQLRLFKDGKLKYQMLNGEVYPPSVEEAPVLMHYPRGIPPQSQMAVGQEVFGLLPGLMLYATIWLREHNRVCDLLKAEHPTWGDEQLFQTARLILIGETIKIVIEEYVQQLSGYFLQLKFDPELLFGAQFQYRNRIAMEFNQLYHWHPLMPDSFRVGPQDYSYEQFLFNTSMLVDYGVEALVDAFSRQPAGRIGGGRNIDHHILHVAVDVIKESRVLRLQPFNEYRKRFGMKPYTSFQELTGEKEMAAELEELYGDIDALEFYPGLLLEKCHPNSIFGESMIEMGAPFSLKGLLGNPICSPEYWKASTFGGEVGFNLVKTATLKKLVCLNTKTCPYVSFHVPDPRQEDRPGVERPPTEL

Rattus norvegicus [7] = experiment: Anti-inflammatory activity in Rattus norvegicus Wistar (rat) assessed as decrease in cotton pellet-induced dry weight of granuloma at 20 mg/kg, po measured on day 8; format: functional, organism-based; parameters: dose 20 mg/kg
Rattus norvegicus [8] = experiment: Anti-inflammatory activity in Rattus norvegicus Wistar (rat) assessed as decrease in cotton pellet-induced total weight of granuloma at 20 mg/kg, po measured on day 8; format: functional, organism-based; parameters: dose 20 mg/kg
Rattus norvegicus [9] = experiment: Anti-inflammatory activity in Rattus norvegicus Wistar (rat) assessed as decrease in cotton pellet-induced wet weight of granuloma at 20 mg/kg, po measured on day 8; format: functional, organism-based; parameters: dose 20 mg/kg

Prostaglandin G/H synthase 1 (Homo sapiens), sequence (P23219 whole entry): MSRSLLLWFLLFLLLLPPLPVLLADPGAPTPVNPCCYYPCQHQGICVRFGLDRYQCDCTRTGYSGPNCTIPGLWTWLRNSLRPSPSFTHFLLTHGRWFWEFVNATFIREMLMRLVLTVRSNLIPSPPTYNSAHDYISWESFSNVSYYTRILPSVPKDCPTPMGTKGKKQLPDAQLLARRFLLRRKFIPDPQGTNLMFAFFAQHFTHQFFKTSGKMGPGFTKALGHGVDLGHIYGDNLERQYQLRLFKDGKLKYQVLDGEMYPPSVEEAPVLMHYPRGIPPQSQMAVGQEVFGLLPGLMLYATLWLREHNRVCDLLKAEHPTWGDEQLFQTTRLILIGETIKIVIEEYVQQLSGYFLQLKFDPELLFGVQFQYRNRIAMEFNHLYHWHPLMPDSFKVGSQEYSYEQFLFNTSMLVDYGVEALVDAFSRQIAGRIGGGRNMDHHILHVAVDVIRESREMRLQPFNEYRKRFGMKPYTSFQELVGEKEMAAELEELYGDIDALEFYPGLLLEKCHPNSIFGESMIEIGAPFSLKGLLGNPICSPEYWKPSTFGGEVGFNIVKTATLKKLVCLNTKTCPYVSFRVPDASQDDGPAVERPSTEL

SMILES	Activity [4]	Activity [5]	Activity (Rattus norvegicus [2])	Activity (Rattus norvegicus [3])	further results
C[C@@H](Nc1nc2ccccn2c1[N+](=O)[O-])c1ccccc1	Active	Active	–	–	–
O=[N+]([O-])c1c(NC2CC2)nc2ccccn12	Active	–	Non-toxic	Non-toxic	inhibition [6]: 3.8%; Activity (Rattus norvegicus [7]): Active; Activity (Rattus norvegicus [8]): Active; Activity (Rattus norvegicus [9]): Active
C[C@H](Nc1nc2ccccn2c1[N+](=O)[O-])c1ccccc1	Active	–	–	–	–
O=[N+]([O-])c1c(NCc2ccccc2)nc2ccccn12	Active	Active	Non-toxic	Non-toxic	Activity (Rattus norvegicus [1]): inactive
O=[N+]([O-])c1c(NC2CCCCC2)nc2ccccn12	Active	Active	–	–	–

Further lines, with some results ahead:

Activity [4]	Activity [5]	SMILES	Activity (Rattus norvegicus [2])	Activity (Rattus norvegicus [3])	further results
Active	–	CC(C)N(c1nc2ccccn2c1[N+](=O)[O-])C(C)C	Non-toxic	Non-toxic	Activity (Rattus norvegicus [1]): inactive
Active	–	CC(C)Nc1nc2ccccn2c1[N+](=O)[O-]	–	–	–
Active	–	CCCCN(CCCC)c1nc2ccccn2c1[N+](=O)[O-]	–	–	–
Active	–	CCCCNc1nc2ccccn2c1[N+](=O)[O-]	–	–	–
